Source: patent US10287266B2, “Compounds and compositions for inhibiting the activity of SHP2” (NOVARTIS AG, priority 2015, dated 2019)

Molecular target: T1, SHP2 (Homo sapiens, UniProt Q06124)
T1 sequence (Q06124 1-593): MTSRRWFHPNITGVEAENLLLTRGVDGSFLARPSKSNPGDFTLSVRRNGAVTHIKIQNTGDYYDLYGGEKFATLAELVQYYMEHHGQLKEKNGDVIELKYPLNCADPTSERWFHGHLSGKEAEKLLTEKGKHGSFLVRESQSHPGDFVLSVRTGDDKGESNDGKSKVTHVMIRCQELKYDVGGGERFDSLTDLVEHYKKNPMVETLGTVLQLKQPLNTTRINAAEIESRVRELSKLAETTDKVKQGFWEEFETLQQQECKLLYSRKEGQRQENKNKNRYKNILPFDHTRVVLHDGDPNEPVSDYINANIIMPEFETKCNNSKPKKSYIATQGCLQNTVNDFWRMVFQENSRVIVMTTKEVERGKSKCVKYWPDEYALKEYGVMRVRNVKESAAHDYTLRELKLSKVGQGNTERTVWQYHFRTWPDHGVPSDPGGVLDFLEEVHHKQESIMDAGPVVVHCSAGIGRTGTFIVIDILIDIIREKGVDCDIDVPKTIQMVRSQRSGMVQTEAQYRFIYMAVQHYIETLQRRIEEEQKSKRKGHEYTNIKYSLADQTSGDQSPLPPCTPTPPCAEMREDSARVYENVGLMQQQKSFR
Assay: SHP2 Allosteric Inhibition Assay
Assay type: biochemical
Conditions: 0.5 nM SHP2 activated with 0.5 μM peptide IRS1_pY1172(dPEG8)pY1222; surrogate substrate DiFMUP, prompt fluorescence, 25° C.
Text: SHP2 Allosteric Inhibition Assay
SHP2 is allosterically activated through binding of bis-tyrosyl-phorphorylated peptides to its Src Homology 2 (SH2) domains. The latter activation step leads to the release of the auto-inhibitory interface of SHP2, which in turn renders the SHP2 protein tyrosine phosphatase (PTP) active and available for substrate recognition and reaction catalysis. The catalytic activity of SHP2 was monitored using the surrogate substrate DiFMUP in a prompt fluorescence assay format.
After 30-60 minutes incubation at 25° C., the surrogate substrate DiFMUP (Invitrogen, cat# D6567) was added to the reaction and incubated at 25° C. for 30 minutes. […] The inhibitor dose response curves were analyzed using normalized IC50 regression curve fitting with control based normalization.

AC50 [µM]	Compound
0.0282	CC1(CN)CCN(c2cnc(Sc3ccnc(N)c3Cl)cn2)CC1O (single isomer, unassigned) [Example 39]
0.108	CC1(CN)CCN(c2cnc(Sc3ccnc(N)c3Cl)cn2)CC1O (single isomer, unassigned) [Example 40]
0.0723	CC1(CN)CCN(c2cnc(Sc3ccnc(N)c3Cl)cn2)CC1O (single isomer, unassigned) [Example 51]
0.791	CC1(CN)CCN(c2cnc(Sc3ccnc(N)c3Cl)cn2)CC1O (single isomer, unassigned) [Example 52]
0.0079	C[C@@H]1OCC2(CCN(c3cnc(Sc4ccnc(N)c4Cl)cn3)CC2)[C@@H]1N [Example 3, (3S,4S)-8-(5-((2-amino-3-chloropyridin-4-yl)thio)pyrazin-2-yl)-3-methyl-2-oxa-8-azaspiro[4.5]decan-4-amine]
0.0174	NC1=NC2(CCN(c3cnc(Sc4ccnc(Cl)c4Cl)cn3)CC2)CO1 [Example 4, 8-(5-((2,3-dichloropyridin-4-yl)thio)pyrazin-2-yl)-3-oxa-1,8-diazaspiro[4.5]dec-1-en-2-amine]
0.067	N#Cc1c(Sc2cnc(N3CCC4(CCC[C@H]4N)CC3)cn2)ccnc1Cl [Example 5, (R)-4-((5-(1-amino-8-azaspiro[4.5]decan-8-yl)pyrazin-2-yl)thio)-2-chloronicotinonitrile]
0.127	CC1(N)CCN(c2cnc(Sc3cccnc3C(F)(F)F)cn2)CC1 [Example 6, 4-methyl-1-(5-((2-(trifluoromethyl)pyridin-3-yl)thio)pyrazin-2-yl)piperidin-4-amine]
0.213	N[C@@H]1CCCC12CCN(c1cnc(Sc3cnnc(O)c3Cl)cn1)CC2 [Example 7, (R)-5-((5-(1-amino-8-azaspiro[4.5]decan-8-yl)pyrazin-2-yl)thio)-4-chloropyridazin-3-ol]
0.434	Nc1nccc(Sc2cnc(N3CCC4(CCCCN4)CC3)cn2)c1Cl [Example 8, 4-((5-(1,9-diazaspiro[5.5]undecan-9-yl)pyrazin-2-yl)thio)-3-chloropyridin-2-amine]
0.0306	CC1(CN)CCN(c2cnc(Sc3ccc(N)cc3Cl)cn2)CC1 [Example 9, 4-((5-(4-(aminomethyl)-4-methylpiperidin-1-yl)pyrazin-2-yl)thio)-3-chloroaniline]
0.0039	Nc1nccc(Sc2cnc(N3CCC4(CC3)C[C@H](F)C[C@H]4N)cn2)c1Cl [Example 10]
0.0041	Nc1nccc(Sc2cnc(N3CCC4(CC3)C[C@H](O)C[C@H]4N)cn2)c1Cl [Example 11]
0.0057	C[C@H]1OCC2(CCN(c3cnc(Sc4ccnc(N)c4Cl)cn3)CC2)[C@@H]1N [Example 12]
0.0059	CC1CCC2(CCN(c3cnc(Sc4ccnc(N)c4Cl)cn3)CC2)[C@@H]1N (stereo partly shown) [Example 13]
0.006	C[C@H]1C[C@@H](N)C2(CCN(c3cnc(Sc4ccnc(N)c4Cl)cn3)CC2)C1 [Example 14]
0.006	Nc1cc(Sc2cnc(N3CCC4(CC3)C[C@H](O)C[C@H]4N)cn2)c(Cl)c(Cl)n1 [Example 15]
0.0061	Nc1nccc(Sc2cnc(N3CCC4(CC3)COC[C@H]4N)cn2)c1Cl [Example 16]
0.0062	CO[C@H]1C[C@@H](N)C2(CCN(c3cnc(Sc4ccnc(N)c4Cl)cn3)CC2)C1 [Example 17]
0.0082	CCC1(CN)CCN(c2cnc(Sc3ccnc(N)c3Cl)cn2)CC1 [Example 18]
0.0085	N[C@@H]1COCC12CCN(c1cnc(Sc3ccnc(Cl)c3Cl)cn1)CC2 [Example 19]
0.0087	N[C@@H]1C[C@H](O)CC12CCN(c1cnc(Sc3ccnc(Cl)c3Cl)cn1)CC2 [Example 20]
0.01	CC1(CN)CCN(c2cnc(Sc3cccc(N)c3Cl)cn2)CC1 [Example 22]

AC50 [µM]	Compound
0.0104	N[C@@H]1COCC12CCN(c1cnc(Sc3ccncc3Cl)cn1)CC2 [Example 23]
0.0104	Nc1cc(Sc2cnc(N3CCC4(CC3)COC[C@H]4N)cn2)c(Cl)c(Cl)n1 [Example 24]
0.0107	CC1(CN)CCN(c2cnc(Sc3ccnc(N)c3Cl)cn2)CC1 [Example 25]
0.0115	CC1(O)C[C@@H](N)C2(CCN(c3cnc(Sc4ccnc(N)c4Cl)cn3)CC2)C1 (stereo partly shown) [Example 26]
0.0121	Nc1nccc(Sc2cnc(N3CCC4(CC3)C[C@@H](F)C[C@H]4N)cn2)c1Cl [Example 27]
0.0141	C[C@@H]1OCC2(CCN(c3cnc(Sc4cc(N)nc(Cl)c4Cl)cn3)CC2)[C@@H]1N [Example 28]
0.0155	CC(C)CC1(CN)CCN(c2cnc(Sc3ccnc(N)c3Cl)cn2)CC1 [Example 29]
0.017	C[C@@H]1C[C@@H](N)C2(CCN(c3cnc(Sc4ccnc(N)c4Cl)cn3)CC2)C1 [Example 30]
0.0176	CCCC1(CN)CCN(c2cnc(Sc3ccnc(N)c3Cl)cn2)CC1 [Example 31]
0.0178	CC(C)C1(CN)CCN(c2cnc(Sc3ccnc(N)c3Cl)cn2)CC1 [Example 32]
0.0193	Nc1cc(Sc2cnc(N3CCC4(CCC[C@H]4N)CC3)cn2)c(Cl)c(Cl)n1 [Example 33]
0.0196	N[C@@H]1COCC12CCN(c1cnc(Sc3ccnc(F)c3Cl)cn1)CC2 [Example 34]
0.0208	N[C@@H]1CCCC12CCN(c1cnc(Sc3cccnc3C(F)(F)F)cn1)CC2 [Example 35]
0.0236	CC1(N)CCN(c2cnc(Sc3cccc(N)c3Cl)cn2)CC1 [Example 36]
0.024	Nc1cc(Sc2cnc(N3CCC4(CCC[C@H]4N)CC3)cn2)c(Cl)c(N)n1 [Example 37]
0.0247	CC1CCC2(CCN(c3cnc(Sc4ccnc(N)c4Cl)cn3)CC2)[C@@H]1N (stereo partly shown) [Example 38]
0.0282	CC1(O)C[C@@H](N)C2(CCN(c3cnc(Sc4ccnc(N)c4Cl)cn3)CC2)C1 (stereo partly shown) [Example 41]
0.0313	CCCC1(N)CCN(c2cnc(Sc3ccnc(N)c3Cl)cn2)CC1 [Example 42]
0.0426	CO[C@@H]1C[C@@H](N)C2(CCN(c3cnc(Sc4ccnc(N)c4Cl)cn3)CC2)C1 [Example 43]
0.0457	COC(=O)C1(CN)CCN(c2cnc(Sc3ccnc(N)c3Cl)cn2)CC1 [Example 44]
0.0471	NCC1(c2ccccn2)CCN(c2cnc(Sc3ccnc(N)c3Cl)cn2)CC1 [Example 45]
0.0476	CC1(CN)CCN(c2cnc(Sc3cccnc3C(F)(F)F)cn2)CC1 [Example 46]
0.056	N[C@@H]1COCC12CCN(c1cnc(Sc3cccnc3C(F)(F)F)cn1)CC2 [Example 47]

AC50 [µM]	Compound
0.0634	Nc1nccc(Sc2cnc(N3CCC4(CCCN4)CC3)cn2)c1Cl [Example 48]
0.0661	N[C@@H]1COCC12CCN(c1cnc(Sc3ccncc3C(F)(F)F)cn1)CC2 [Example 49]
0.0705	NCC1(CO)CCN(c2cnc(Sc3ccnc(N)c3Cl)cn2)CC1 [Example 50]
0.215	Nc1nccc(Sc2cnc(N3CCC4(CC3)COCCN4)cn2)c1Cl [Example 53]
0.381	Nc1nccc(Sc2cnc(N3CCC(N)(CO)CC3)cn2)c1Cl [Example 54]
0.0051	N[C@@H]1[C@H](O)[C@@H](O)CC12CCN(c1cnc(Sc3ccnc(Cl)c3Cl)cn1)CC2 [Example 55]
0.0238	Nc1nccc(Sc2cnc(N3CCC4(CC3)CC(F)(F)C[C@H]4N)cn2)c1Cl [Example 56]
0.0438	Nc1nccc(Sc2cnc(N3CCC4(CC3)C[C@H](O)[C@@H](O)[C@H]4N)cn2)c1Cl [Example 57]
0.454	C[C@H]1OCC2(CCN(c3cnc(Sc4ccnc(N)c4Cl)cn3)CC2)[C@H]1N [Example 58]
0.155	CC1(CN)CCN(c2cnc(Sc3cc(N)nc(Cl)c3Cl)cn2)CC1 [Example 59]
0.0351	C[C@H]1C[C@@H](N)C2(CCN(c3cnc(Sc4cc(N)nc(Cl)c4Cl)cn3)CC2)C1 [Example 60]
0.145	Nc1cc(Sc2cnc(N3CCC4(CC3)C[C@H](F)C[C@H]4N)cn2)c(Cl)c(Cl)n1 [Example 61]
0.0446	CC(C)c1ccccc1Sc1cnc(N2CCC3(CCC[C@H]3N)CC2)cn1 [Example 63]
0.0482	Cc1cccc(Sc2cnc(N3CCC4(CCC[C@H]4N)CC3)cn2)c1 [Example 64]
0.0305	N[C@@H]1CCCC12CCN(c1cnc(Sc3ccccc3OC(F)(F)F)cn1)CC2 [Example 65]
1.46	CC(C)(C)c1ccccc1Sc1cnc(N2CCC3(CCC[C@H]3N)CC2)cn1 [Example 66]
0.92	N[C@@H]1CCCC12CCN(c1cnc(Sc3ccccc3C(F)(F)F)cn1)CC2 [Example 67]
0.968	Nc1ccccc1Sc1cnc(N2CCC3(CCC[C@H]3N)CC2)cn1 [Example 68]
0.0418	COc1ccccc1Sc1cnc(N2CCC3(CCC[C@H]3N)CC2)cn1 [Example 69]
0.0304	N[C@@H]1CCCC12CCN(c1cnc(Sc3ccccc3F)cn1)CC2 [Example 70]
0.0646	N[C@@H]1CCCC12CCN(c1cnc(Sc3ccccc3)cn1)CC2 [Example 72]
